Patent US9718819B2 (Merck Sharp & Dohme Corp., priority 2012, dated 2017)

Each compound was assayed against HIV-1 RT wild-type enzyme (Human immunodeficiency virus type 1 group M subtype B (isolate HXB2) (HIV-1), UniProt P04585) (assay: HIV-1 reverse transcriptase inhibitory activity (RT polymerase assay)). Settings: HIV-1 RT wild-type enzyme 83 pM; RNA-dependent DNA polymerase activity; read-out: IC50.
Format: biochemical
Method in brief: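 Enzyme and compound were preincubated 30 min at room temperature, then RNA/DNA hybrid (16.6 nM final; HCV-derived RNA, biotinylated primer) plus 2 μM dNTPs and 66.6 nM Ru-dUTP added, 90 min at 37 °C. Avidin capture and ECL counting; percent inhibition relative to DMSO (0%) and 1 μM efavirenz (100%), four-parameter IC50 fit.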
N#Cc1cc(Cl)cc(Oc2c(C(F)(F)F)ncn(Cc3cc(-c4ccc(C#N)c(F)c4)n[nH]c3=O)c2=O)c1 [Example 122, 4-(5-((5-(3-chloro-5-cyanophenoxy)-6-oxo-4-(trifluoromethyl)pyrimidin-1(6H)-yl)methyl)-6-oxo-1,6-dihydropyridazin-3-yl)-2-fluorobenzonitrile] showed an IC50 of 6 nM.
Compound N#Cc1cc(Cl)cc(Oc2c(C(F)(F)F)ncn(Cc3cc(-c4ccc(Cl)c(F)c4)n[nH]c3=O)c2=O)c1 [Example 123, 3-chloro-5-((1-((6-(4-chloro-3-fluorophenyl)-3-oxo-2,3-dihydropyridazin-4-yl)methyl)-6-oxo-4-(trifluoromethyl)-1,6-dihydropyrimidin-5-yl)oxy)benzonitrile] has an IC50 of 6 nM.
N#Cc1cc(Cl)cc(Oc2c(C(F)(F)F)ncn(Cc3cc(-c4cccnc4)n[nH]c3=O)c2=O)c1 [Example 124, 3-chloro-5-((6-oxo-1-((3-oxo-6-(pyridin-3-yl)-2,3-dihydropyridazin-4-yl)methyl)-4-(trifluoromethyl)-1,6-dihydropyrimidin-5-yl)oxy)benzonitrile] showed an IC50 of 6 nM.
For N#Cc1cc(Cl)cc(Oc2c(C(F)(F)F)ncn(Cc3cc(-c4ccc(C(O)C(F)F)cc4)n[nH]c3=O)c2=O)c1 (centres unmarked) [Example 125, 3-chloro-5-((1-((6-(4-(2,2-difluoro-1-hydroxyethyl)phenyl)-3-oxo-2,3-dihydropyridazin-4-yl)methyl)-6-oxo-4-(trifluoromethyl)-1,6-dihydropyrimidin-5-yl)oxy)benzonitrile], the IC50 was 8 nM.
N#Cc1cc(Cl)cc(Oc2c(C(F)(F)F)ncn(Cc3cc(-c4ccnc5[nH]ccc45)n[nH]c3=O)c2=O)c1 [Example 126, 3-chloro-5-((6-oxo-1-((3-oxo-6-(1H-pyrrolo[2,3-b]pyridin-4-yl)-2,3-dihydropyridazin-4-yl)methyl)-4-(trifluoromethyl)-1,6-dihydropyrimidin-5-yl)oxy)benzonitrile] gave an IC50 of 4 nM.
Compound N#Cc1cc(Cl)cc(Oc2c(C(F)(F)F)ncn(Cc3cnc(C(F)(F)F)[nH]c3=O)c2=O)c1 [Example 131, 3-Chloro-5-[16-oxo-1-(6-oxo-2-trifluoromethyl-1,6-dihydro-pyrimidin-5-ylmethyl)-4-trifluoromethyl-1,6-dihydro-pyrimidin-5-yloxy]-benzonitrile] has an IC50 of 435 nM.
With CSc1ncc(Cn2cnc(C(F)(F)F)c(Oc3cc(Cl)cc(C#N)c3)c2=O)c(=O)[nH]1 [Example 132, 3-chloro-5-((1-((2-(methylthio)-6-oxo-1,6-dihydropyrimidin-5-yl)methyl)-6-oxo-4-(trifluoromethyl)-1,6-dihydropyrimidin-5-yl)oxy)benzonitrile] the IC50 was 12 nM.
Compound Cc1ncc(Cn2cnc(C(F)(F)F)c(Oc3cc(Cl)cc(C#N)c3)c2=O)c(=O)[nH]1 [Example 133, 3-chloro-5-((1-((2-methyl-6-oxo-1,6-dihydropyrimidin-5-yl)methyl)-6-oxo-4-(trifluoromethyl)-1,6-dihydropyrimidin-5-yl)oxy)benzonitrile] has an IC50 of 8 nM.
In the case of N#Cc1cc(Cl)cc(Oc2c(C3CC3)ncn(Cc3ccc(=O)[nH]n3)c2=O)c1 [Example 134, 3-chloro-5-((4-cyclopropyl-6-oxo-1-((6-oxo-1,6-dihydropyridazin-3-yl)methyl)-1,6-dihydropyrimidin-5-yl)oxy)benzonitrile], the IC50 is reported as 17 nM.
N#Cc1cc(Cl)cc(Oc2c(C(F)(F)F)ncn(Cc3cnc(O)[nH]c3=O)c2=O)c1 [Example 135, 3-chloro-5-((1-((2-hydroxy-6-oxo-1,6-dihydropyrimidin-5-yl)methyl)-6-oxo-4-(trifluoromethyl)-1,6-dihydropyrimidin-5-yl)oxy)benzonitrile] gave an IC50 of 8 nM.
Compound N#Cc1cc(Cl)cc(Oc2c(C(F)(F)F)ncn(Cc3cnc[nH]c3=O)c2=O)c1 [Example 136, 3-chloro-5-((6-oxo-1-((6-oxo-1,6-dihydropyrimidin-5-yl)methyl)-4-(trifluoromethyl)-1,6-dihydropyrimidin-5-yl)oxy)benzonitrile] has an IC50 of 6 nM.
In the case of CNc1ncc(Cn2cnc(C(F)(F)F)c(Oc3cc(Cl)cc(C#N)c3)c2=O)c(=O)[nH]1 [Example 137, 3-chloro-5-((1-((2-(methylamino)-6-oxo-1,6-dihydropyrimidin-5-yl)methyl)-6-oxo-4-(trifluoromethyl)-1,6-dihydropyrimidin-5-yl)oxy)benzonitrile], the IC50 is reported as 9 nM.
CNc1ncc(Cn2cnc(C(F)(F)F)c(Oc3cc(Cl)cc(C#N)c3)c2=O)c(OC)n1 [Example 138, 3-chloro-5-((1-((4-methoxy-2-(methylamino)pyrimidin-5-yl)methyl)-6-oxo-4-(trifluoromethyl)-1,6-dihydropyrimidin-5-yl)oxy)benzonitrile] gave an IC50 of 11 nM.
Compound N#Cc1cc(Cl)cc(Oc2c(C(F)(F)F)ncn(Cc3cnc(OCC(F)(F)F)[nH]c3=O)c2=O)c1 [Example 139, 3-Chloro-5-{6-oxo-1-[6-oxo-2-(2,2,2-trifluoro-ethoxy)-1,6-dihydro-pyrimidin-5-ylmethyl]-4-trifluoromethyl-1,6-dihydro-pyrimidin-5-yloxy}-benzonitrile] has an IC50 of 45 nM.
For N#Cc1cc(Cl)cc(Oc2c(C(F)(F)F)ncn(Cc3cnc(Oc4ccc(F)cc4)[nH]c3=O)c2=O)c1 [Example 140, 3-Chloro-5-{1-[2-(4-fluoro-phenoxy)-6-oxo-1,6-dihydro-pyrimidin-5-ylmethyl]-6-oxo-4-trifluoromethyl-1,6-dihydro-pyrimidin-5-yloxy}-benzonitrile], the IC50 was 36 nM.
CN(C)c1ncc(Cn2cnc(C(F)(F)F)c(Oc3cc(Cl)cc(C#N)c3)c2=O)c(=O)[nH]1 [Example 141, 3-Chloro-5-[1-(2-dimethylamino-6-oxo-1,6-dihydro-pyrimidin-5-ylmethyl)-6-oxo-4-trifluoromethyl-1,6-dihydro-pyrimidin-5-yloxy]-benzonitrile] gave an IC50 of 13 nM.
N#Cc1cc(Cl)cc(Oc2c(C(F)(F)F)ncn(Cc3cnc(-n4cccn4)[nH]c3=O)c2=O)c1 [Example 142, 3-Chloro-5-[6-oxo-1-(6-oxo-2-pyrazol-1-yl-1,6-dihydro-pyrimidin-5-ylmethyl)-4-trifluoromethyl-1,6-dihydro-pyrimidin-5-yloxy]-benzonitrile] was tested, and the IC50 was 35 nM.
With N#Cc1cc(Cl)cc(Oc2c(C(F)(F)F)ncn(Cc3cnc(N)[nH]c3=O)c2=O)c1 [Example 143, 3-((1-((2-amino-6-oxo-1,6-dihydropyrimidin-5-yl)methyl)-6-oxo-4-(trifluoromethyl)-1,6-dihydropyrimidin-5-yl)oxy)-5-chlorobenzonitrile] the IC50 was 7 nM.
CCc1ncc(Cn2cnc(C(F)(F)F)c(Oc3cc(Cl)cc(C#N)c3)c2=O)c(=O)[nH]1 [Example 144, 3-chloro-5-((1-((2-ethyl-6-oxo-1,6-dihydropyrimidin-5-yl)methyl)-6-oxo-4-(trifluoromethyl)-1,6-dihydropyrimidin-5-yl)oxy)benzonitrile] was tested, and the IC50 was 9 nM.
Work on N#Cc1cc(Cl)cc(Oc2c(C(F)(F)F)ncn(Cc3cnc(C4CC4)[nH]c3=O)c2=O)c1 [Example 145, 3-chloro-5-((1-((2-cyclopropyl-6-oxo-1,6-dihydropyrimidin-5-yl)methyl)-6-oxo-4-(trifluoromethyl)-1,6-dihydropyrimidin-5-yl)oxy)benzonitrile] yielded an IC50 of 9 nM.
